Source: the supplement of paper PMC11451515

Test system: NOMO1
Test: cell viability relative to DMSO control; higher = less cytotoxic
Details: 48 h
How it was run: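 Three leukemia lines were tested: NOMO1 and SEM at 500 cells/well and P12-Ichikawa at 1000 cells/well. Each was adapted for at least four passages in each medium and seeded in 5 μl in 1536-well plates, and library compounds in DMSO were pin-dosed from 47 μM to 0.79 nM in 11 threefold steps. After 48 h at 37°C, CellTiter-Glo One luminescence was read. Viability is a percentage relative to DMSO wells on each plate, with cell-free wells as background.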

[1] = HPLM + 10% dialyzed FBS, 0.000781 µM
[2] = HPLM + 10% dialyzed FBS, 0.00234 µM
[3] = HPLM + 10% dialyzed FBS, 0.00702 µM
[4] = HPLM + 10% dialyzed FBS, 0.0211 µM
[5] = HPLM + 10% dialyzed FBS, 0.0632 µM
[6] = HPLM + 10% dialyzed FBS, 0.19 µM
[7] = HPLM + 10% dialyzed FBS, 0.569 µM
[8] = HPLM + 10% dialyzed FBS, 1.71 µM
[9] = HPLM + 10% dialyzed FBS, 5.12 µM
[10] = HPLM + 10% dialyzed FBS, 15.4 µM
[11] = HPLM + 10% dialyzed FBS, 46.1 µM
[12] = RPMI 5 mM glucose + 10% FBS, 0.000781 µM
[13] = RPMI 5 mM glucose + 10% FBS, 0.00234 µM
[14] = RPMI 5 mM glucose + 10% FBS, 0.00702 µM
[15] = RPMI 5 mM glucose + 10% FBS, 0.0211 µM
[16] = RPMI 5 mM glucose + 10% FBS, 0.0632 µM
[17] = RPMI 5 mM glucose + 10% FBS, 0.19 µM
[18] = RPMI 5 mM glucose + 10% FBS, 0.569 µM
[19] = RPMI 5 mM glucose + 10% FBS, 1.71 µM
[20] = RPMI 5 mM glucose + 10% FBS, 5.12 µM
[21] = RPMI 5 mM glucose + 10% FBS, 15.4 µM
[22] = RPMI 5 mM glucose + 10% FBS, 46.1 µM
[23] = RPMI 5 mM glucose + 10% dialyzed FBS, 0.000781 µM
[24] = RPMI 5 mM glucose + 10% dialyzed FBS, 0.00234 µM
[25] = RPMI 5 mM glucose + 10% dialyzed FBS, 0.00702 µM
[26] = RPMI 5 mM glucose + 10% dialyzed FBS, 0.0211 µM
[27] = RPMI 5 mM glucose + 10% dialyzed FBS, 0.0632 µM
[28] = RPMI 5 mM glucose + 10% dialyzed FBS, 0.19 µM
[29] = RPMI 5 mM glucose + 10% dialyzed FBS, 0.569 µM
[30] = RPMI 5 mM glucose + 10% dialyzed FBS, 1.71 µM
[31] = RPMI 5 mM glucose + 10% dialyzed FBS, 5.12 µM
[32] = RPMI 5 mM glucose + 10% dialyzed FBS, 15.4 µM
[33] = RPMI 5 mM glucose + 10% dialyzed FBS, 46.1 µM

Row | SMILES | cell viability [1] | cell viability [2] | cell viability [3] | cell viability [4] | cell viability [5] | cell viability [6] | cell viability [7] | cell viability [8] | cell viability [9] | cell viability [10] | cell viability [11] | cell viability [12] | cell viability [13] | cell viability [14] | cell viability [15] | cell viability [16] | cell viability [17] | cell viability [18] | cell viability [19] | cell viability [20] | cell viability [21] | cell viability [22] | cell viability [23] | cell viability [24] | cell viability [25] | cell viability [26] | cell viability [27] | cell viability [28] | cell viability [29] | cell viability [30] | cell viability [31] | cell viability [32] | cell viability [33]
1 | CCc1nc(N)nc(N)c1-c1ccc(Cl)cc1 | 78.8% | 118% | 93.3% | 92.8% | 105% | 108% | 96.1% | 47.7% | 48% | 44.6% | 38.7% | 81.1% | 99.5% | 84.8% | 83.7% | 86.1% | 86.4% | 90.6% | 90.5% | 89.9% | 89.1% | 89.6% | 84% | 94.3% | 90.3% | 100% | 106% | 104% | 96.8% | 104% | 90.2% | 56.3% | 35.3%
2 | C[C@]12CC[C@H]3[C@@H](CC[C@@]45O[C@@H]4C(O)=C(C#N)C[C@]35C)[C@@H]1CC[C@@H]2O | 102% | 111% | 118% | 112% | 123% | 111% | 110% | 116% | 97.2% | 109% | 21.2% | 111% | 119% | 117% | 127% | 117% | 119% | 128% | 118% | 117% | 117% | 30.7% | 110% | 121% | 127% | 132% | 143% | 132% | 128% | 135% | 136% | 125% | 24.3%
3 | Cn1cnc(N)c2ncnc1-2 | 111% | 130% | 108% | 117% | 139% | 92.4% | 139% | 80.3% | 63.5% | 11.5% | 6.59% | 99.7% | 113% | 117% | 119% | 131% | 111% | 118% | 117% | 94.7% | 18.5% | 9.02% | 102% | 124% | 118% | 130% | 135% | 113% | 120% | 118% | 79.7% | 19.3% | 11.9%
4 | Cc1cnc(Nc2cccc(CN3CCOCC3)c2)nc1Nc1cccc([S+](=O)([O-])NC(C)(C)C)c1 | 87.9% | 99.6% | 100% | 96.4% | 107% | 108% | 104% | 97.8% | 61.5% | 100% | 84.1% | 79.8% | 85.1% | 85.4% | 94.8% | 83.8% | 78.1% | 80.4% | 75.2% | 35.1% | 86.3% | 85.5% | 84% | 96.7% | 86.2% | 90.7% | 88% | 98.6% | 93.6% | 85.1% | 43.5% | 90.7% | 87.3%
5 | CCCC[S+](=N)([O-])CCC(N)C(=O)O (centres undefined) | 120% | 122% | 138% | 138% | 157% | 131% | 150% | 142% | 148% | 89.2% | 28.7% |  |  |  |  |  |  |  |  |  |  |  |  |  |  |  |  |  |  |  |  |  | 
6 | CN(C[C@@H]1COCCO1)[S+]([O-])(=O)NC2=CC3=C(C=C2)\C=C/C4=C(C=C(C=N4)C5=C[N](C)N=C5)C3=O | 89.6% | 107% | 92.5% | 92.1% | 84.5% | 72.2% | 62.2% | 47.1% | 41.1% | 26.2% | 26.6% | 92.2% | 101% | 90.6% | 114% | 93.8% | 91.2% | 86.9% | 57.1% | 49.5% | 35.2% | 33.3% | 84.5% | 104% | 98.4% | 87.4% | 99.2% | 91.9% | 73.7% | 52.1% | 48.9% | 39.8% | 31.6%
7 | CC(C)[C@H](O)C(=O)N[C@@H](C)C(=O)N[C@@H]1C(=O)N(C)CCc2ccccc21 | 93.5% | 132% | 111% | 113% | 113% | 125% | 109% | 101% | 101% | 92.6% | 76.7% | 98.7% | 119% | 117% | 114% | 117% | 98.5% | 125% | 105% | 108% | 110% | 92.5% | 112% | 109% | 123% | 112% | 110% | 114% | 108% | 108% | 112% | 103% | 97.2%
8 | Nc1nccc(-c2ccc3noc(-c4ccc(Cl)cc4)c3c2)n1 |  |  |  |  |  |  |  |  |  |  |  | 101% | 117% | 103% | 127% | 102% | 111% | 115% | 107% | 108% | 101% | 104% | 121% | 115% | 115% | 120% | 122% | 110% | 127% | 106% | 118% | 116% | 113%
9 | CC(C)(Sc1cc(C(C)(C)C)c(O)c(C(C)(C)C)c1)Sc1cc(C(C)(C)C)c(O)c(C(C)(C)C)c1 | 88.5% | 92.3% | 85.6% | 105% | 108% | 90.4% | 96.2% | 94.3% | 79.1% | 103% | 91.6% | 84.4% | 92.5% | 86.2% | 91.3% | 86.4% | 98.4% | 92.8% | 84.8% | 92.7% | 93% | 84.8% | 79.7% | 88.3% | 94.6% | 83.7% | 98.9% | 105% | 95.5% | 94.5% | 81.4% | 90.2% | 94%
10 | O=C(CCCN1CCC(O)(c2ccc(Cl)cc2)CC1)c1ccc(F)cc1 | 115% | 119% | 108% | 111% | 114% | 133% | 135% | 129% | 126% | 110% | 91.7% | 95.3% | 106% | 101% | 109% | 128% | 117% | 110% | 119% | 102% | 110% | 82.1% | 115% | 121% | 114% | 110% | 125% | 115% | 120% | 116% | 122% | 117% | 82.5%
11 | COc1ccc(-n2c(C)c([N+](=O)[O-])c3ccc(O)cc32)cc1 |  |  |  |  |  |  |  |  |  |  |  | 111% | 104% | 113% | 114% | 118% | 126% | 107% | 121% | 98.3% | 119% | 106% | 114% | 120% | 126% | 124% | 123% | 115% | 114% | 102% | 97.5% | 105% | 101%
12 | COc1cc(N2CCN(C)CC2)ccc1Nc1nc(N)c(C(=O)c2c(Cl)cccc2Cl)s1 | 117% | 105% | 119% | 105% | 110% | 116% | 126% | 128% | 107% | 89% | 82.7% | 107% | 117% | 103% | 98.7% | 103% | 118% | 102% | 105% | 104% | 98.6% | 87.3% | 108% | 107% | 108% | 116% | 96.6% | 114% | 103% | 109% | 102% | 105% | 89.7%
13 | C/C=C(\C)C(=O)N[C@@H](c1ccccc1)[C@@H](O)C(=O)O[C@H]1C[C@@]2(O)[C@@H](OC(=O)c3ccccc3)[C@@H]3[C@]4(OC(C)=O)CO[C@@H]4C[C@H](O)[C@@]3(C)C(=O)[C@H](OC(C)=O)C(=C1C)C2(C)C | 25.1% | 23.3% | 26.8% | 30.3% | 29.7% | 27.4% | 23.4% | 26.9% | 24.1% | 28.9% | 20.7% | 38.9% | 13.2% | 17.4% | 13.8% | 14.7% | 14.3% | 13% | 15.6% | 12.4% | 11.3% | 9.52% | 47.4% | 17.8% | 21.3% | 20.2% | 17.5% | 20.3% | 17.2% | 16.1% | 19.8% | 21.3% | 16.6%
14 | COc1cccc(N(C)C(=S)Oc2ccc3c(c2)CCCC3)n1 | 93.3% | 95.6% | 118% | 89.1% | 111% | 102% | 101% | 110% | 108% | 102% | 99.6% | 85.4% | 88.1% | 87% | 82.2% | 103% | 90.8% | 91% | 88.1% | 103% | 92.2% | 105% | 82.3% | 98.9% | 94% | 84% | 99.5% | 97.7% | 103% | 94.2% | 105% | 108% | 101%
15 | O=C(NOCC1CC1)c1ccc(F)c(F)c1Nc1ccc(I)cc1Cl | 97.2% | 109% | 123% | 115% | 99.1% | 91.7% | 74.7% | 68.5% | 52% | 49.3% | 41.4% | 84.5% | 91.6% | 100% | 112% | 95.1% | 93.8% | 73.5% | 83.5% | 56.9% | 46.9% | 50% | 95.7% | 108% | 97.2% | 107% | 92.4% | 86.8% | 82.1% | 75.6% | 44.2% | 42.8% | 44.4%
16 | CC(C)[C@H]1C(=O)N[C@H](CO)Cc2c[nH]c3cccc(c23)N1C | 104% | 98.3% | 106% | 111% | 125% | 128% | 112% | 75.8% | 50.6% | 47.2% | 45% | 96.2% | 103% | 112% | 104% | 111% | 119% | 99.7% | 77.7% | 67.9% | 51.1% | 46.7% | 81.7% | 94.4% | 93.2% | 93.2% | 97.5% | 120% | 100% | 69.5% | 71.1% | 56% | 47.4%
